Experimental data from PMC3992122 (Molecular cancer therapeutics, 2012).

Assays:
imatinib-resistant GIST = conditions: second-line setting; cited from earlier work
[1] = tested on: imatinib- and sunitinib-resistant GISTs; conditions: phase II study; cited from earlier work
drug-resistant GIST = conditions: third-line treatment, cited from earlier work
[2] = tested on: imatinib- or imatinib/sunitinib-resistant GIST; conditions: sorafenib 400 mg twice daily, cited from earlier work
[3] = target: GIST48 cells (KIT V560D + D820A) (Homo sapiens, UniProt P10721, D820A/V560D); conditions: doses as low as 100 nmol/L
GIST patients = GIST patients treated with sorafenib; cited from earlier work
[4] = tested on: GIST after imatinib, sunitinib and nilotinib therapy; conditions: fourth-line, 400 mg twice daily, cited from earlier work

Chain of GIST48 cells (KIT V560D + D820A) (P10721 26-976 V560D/D820A): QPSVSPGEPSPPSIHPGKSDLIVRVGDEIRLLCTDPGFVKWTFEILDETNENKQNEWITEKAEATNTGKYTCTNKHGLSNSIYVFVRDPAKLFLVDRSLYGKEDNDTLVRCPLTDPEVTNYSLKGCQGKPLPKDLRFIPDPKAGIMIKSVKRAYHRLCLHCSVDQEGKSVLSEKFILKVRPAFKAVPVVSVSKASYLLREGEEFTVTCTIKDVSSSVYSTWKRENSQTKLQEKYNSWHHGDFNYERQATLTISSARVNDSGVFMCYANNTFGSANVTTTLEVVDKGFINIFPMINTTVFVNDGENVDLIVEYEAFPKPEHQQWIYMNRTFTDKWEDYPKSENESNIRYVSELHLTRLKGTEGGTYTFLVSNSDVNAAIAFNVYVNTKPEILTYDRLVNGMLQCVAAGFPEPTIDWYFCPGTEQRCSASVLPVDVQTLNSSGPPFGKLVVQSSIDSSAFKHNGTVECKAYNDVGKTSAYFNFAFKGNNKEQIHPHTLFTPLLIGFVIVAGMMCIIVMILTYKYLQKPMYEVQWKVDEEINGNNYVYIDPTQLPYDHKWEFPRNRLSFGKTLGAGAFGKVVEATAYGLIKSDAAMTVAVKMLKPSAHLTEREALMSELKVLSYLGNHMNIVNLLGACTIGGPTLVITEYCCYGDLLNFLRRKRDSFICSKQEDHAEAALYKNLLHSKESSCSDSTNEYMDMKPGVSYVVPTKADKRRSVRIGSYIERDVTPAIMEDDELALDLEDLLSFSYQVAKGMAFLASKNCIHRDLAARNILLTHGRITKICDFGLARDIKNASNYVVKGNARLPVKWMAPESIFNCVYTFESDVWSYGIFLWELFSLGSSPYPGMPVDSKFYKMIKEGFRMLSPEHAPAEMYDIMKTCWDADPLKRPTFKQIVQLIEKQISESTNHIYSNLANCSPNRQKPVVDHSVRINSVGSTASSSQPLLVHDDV

Compound: CCN(CC)CCNC(=O)c1c(C)[nH]c(/C=C2\C(=O)Nc3ccc(F)cc32)c1C [Sunitinib]
- disease control rate (imatinib-resistant GIST): 65%
- median OS (imatinib-resistant GIST): 17.2 months

Compound: CNC(=O)c1cc(Oc2ccc(NC(=O)Nc3ccc(Cl)c(C(F)(F)F)c3)c(F)c2)ccn1 [Regorafenib]
- clinical benefit rate [1]: 55%
- median PFS [1]: 10 months

Compound: CNC(=O)c1cc(Oc2ccc(NC(=O)Nc3ccc(Cl)c(C(F)(F)F)c3)cc2)ccn1 [Sorafenib]
- median OS (drug-resistant GIST; median follow-up of 7.5 months): had not been reached
- median PFS (drug-resistant GIST): 4.6 months
- overall disease control rate (drug-resistant GIST): 65%
- disease control rate ([2]; 38 patients): 68%
- hand-foot syndrome (grade 3-4 toxicity) [2]: 45%
- median OS [2]: 11.6 months
- patients requiring at least one dose reduction [2]: 63%
- rate of grade 3-4 toxicity [2]: greater than 50%
- inhibition of KIT phosphorylation [3]: 85%
- grade 3-4 anemia (GIST patients): 7%
- grade 3-4 elevated liver enzymes or bilirubin (GIST patients): 7%
- grade 3-4 fatigue (GIST patients): 5%
- grade 3-4 hand-foot skin reaction (GIST patients): 16%
- grade 3-4 hypertension (GIST patients): 5%
- overall tumor control rate ([4]; 32 patients): 63%
- median PFS [4]: 4.6 months
